The record followed here is patent US20050081267A1, “Novel genes for conditional cell ablation” (Bayer Bioscience N.V., priority 2001, published 2005).

Structures are written as SMILES.

In test [1] the test system is flower buds of the transgenic lines (Tobacco, Nicotiana tabacum) expressing ArgJ deacetylase under TA29 promoter. Kind of test: Flower bud treatment to induce male-sterile flowers in TA29-ArgJ transgenic tobacco. In kind it is in vivo. The conditions noted are these: 10 μl of 5 mg/ml solution (0.1% Genapol). An excerpt:
The ArgJ coding sequence was recloned into the binary vector pROK1 under control of the TA29 promoter of tobacco. The resulting plasmid pTA29ARG comprising the TA29 promoter, ArgJ coding sequence and 35S terminator was transformed in Agrobacterium tumefaciens (strain ATHV) using standard methods. Tobacco (Nicotiana tabacurn) leaf disks were transformed with the recombinant Agrobacteria according to the method of Horsch et al. (1985, above) and selected on kanamycin medium.
To investigate tapetum-specific expression of the ArgJ deacetylase, flower buds of the transgenic lines were treated with N-acetyl-PPT to induce male-sterile flowers.
In each case only one side of the inflorescence ([…] of the developing flower bud) was treated with N-acetyl PPT, in order to eliminate possible contamination with natural male-sterility phenomena. Treatment was carried out on flower buds of 2 to 4 mm large. Transgenic and control plants were treated with 10 μl of 5 mg/ml N-acetyl PPT solution (0.1% Genapol as wetting agent). After the blooming of the buds (about 9-11 days after conclusion of the treatment) the plants were investigated for the occurrence of male-sterile flowers.

Test [2] deals with leaves of the transgenic plants (Tobacco, Nicotiana tabacum) expressing ArgJ coding sequence under 35S promoter. Briefly: Drop experiment on leaves of 35S-ArgJ transgenic tobacco plants. In kind it is in vivo. The conditions noted are these: 5 μl drops; dose of 4 mg/ml or 1 mg/ml; apparent 4 to 5 days after treatment; seven independent p35SARG transformants. An excerpt:
The ArgJ coding sequence was recloned into the binary vector pROK1 under control of the Cauliflower Mosaic Virus 35S promoter sequence. The resulting plasmid p35SARG comprising the 35S promoter, ArgJ coding sequence and 35S terminator was transformed in Agrobacterium tumefaciens (strain ATHV) using standard methods. Tobacco (Nicotiana tabacum) leaf disks were transformed with the recombinant Agrobacteria according to the method of Horsch et al. (1985, Science 227:1229-1231) and selected on kanamycin medium. Seven independent transformants were regenerated. In a drop experiment, the leaves of the transgenic plants (and a number of control plants) were treated with 5 μl each of the following concentrations of N-acetyl- D, L-PPT: 4 mg/ml (=15 mM), 1 mg/ml (=3.75 mM), 0.4 mg/ml (=1.5 mM), 0.1 mg/ml (=0.38 mM). The treatment sites were examined for lightening or necrosis formation.

On to `CC(=O)NC(CCP(C)(=O)O)C(=O)O` [N-acetyl- D, L-PPT, N-acetyl-phosphinothricin], for which the “occurrence of male-sterile flowers, control or wild-type tobacco flowers” value in test [1] (control and wild-type plants) is listed as “no reaction was seen”. For the same compound, the “occurrence of male-sterile flowers from drop-treated flowerbuds, transgenic plants” value in test [1] (flower buds 2 to 4 mm, examined about 9-11 days after treatment, pTA29ARG transgenic plants) is given as “In three out of seven transgenic plants, male-sterile flowers developed”. Further, the “lightening or necrosis formation at treatment sites (leaf damage)” value in test [2] was “Four plants showed clearly visible leaf damage”.
